Assays:
Format in all cases: cell-based
human TLR8 = biological target: T1, human TLR8 (Homo sapiens, UniProt Q9NR97); assay: TLR8 inhibition reporter assay (HEK-Blue cells, SEAP reporter, R848 stimulation); settings: HEK-Blue cells overexpressing human TLR8, SEAP reporter, R848 15.9 μM
T1 construct: host or cells: HEK-Blue cells
T1 sequence (Q9NR97 27-1041): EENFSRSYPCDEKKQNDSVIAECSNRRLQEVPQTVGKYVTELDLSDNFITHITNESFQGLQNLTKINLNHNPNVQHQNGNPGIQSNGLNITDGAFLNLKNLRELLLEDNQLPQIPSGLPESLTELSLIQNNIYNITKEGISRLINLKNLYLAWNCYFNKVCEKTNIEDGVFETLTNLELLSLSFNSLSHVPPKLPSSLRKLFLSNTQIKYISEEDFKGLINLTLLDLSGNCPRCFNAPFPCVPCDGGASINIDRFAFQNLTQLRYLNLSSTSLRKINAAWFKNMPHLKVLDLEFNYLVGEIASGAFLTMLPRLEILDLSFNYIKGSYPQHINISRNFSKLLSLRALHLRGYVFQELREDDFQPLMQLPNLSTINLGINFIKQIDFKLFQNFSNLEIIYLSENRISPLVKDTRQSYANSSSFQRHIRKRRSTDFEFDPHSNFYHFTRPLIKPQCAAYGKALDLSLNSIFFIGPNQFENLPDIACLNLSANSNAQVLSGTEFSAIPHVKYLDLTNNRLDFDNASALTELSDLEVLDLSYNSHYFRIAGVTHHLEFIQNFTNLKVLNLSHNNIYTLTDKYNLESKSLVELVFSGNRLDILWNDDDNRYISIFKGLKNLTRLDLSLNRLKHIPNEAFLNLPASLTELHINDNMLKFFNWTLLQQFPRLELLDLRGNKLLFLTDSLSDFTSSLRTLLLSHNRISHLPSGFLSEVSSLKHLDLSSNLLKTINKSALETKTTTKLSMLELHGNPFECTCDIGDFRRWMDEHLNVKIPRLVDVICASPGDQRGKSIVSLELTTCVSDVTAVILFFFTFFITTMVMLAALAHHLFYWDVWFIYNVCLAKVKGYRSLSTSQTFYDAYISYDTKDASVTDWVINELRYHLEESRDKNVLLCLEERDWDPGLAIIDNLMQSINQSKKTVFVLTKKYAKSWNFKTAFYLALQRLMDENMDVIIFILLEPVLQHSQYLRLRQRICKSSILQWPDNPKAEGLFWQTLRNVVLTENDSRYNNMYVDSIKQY
Outline: (§1)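 Percent inhibition is derived from SEAP signal, scaled between agonist-plus-DMSO wells and wells given a known inhibitor. Test compounds (0.05 nM–50 μM) are pre-incubated 30 min at room temperature before agonist addition (TLR7: 7.5 μM gardiquimod; TLR8: 15.9 μM R848; TLR9: 5 nM ODN2006) and 22 h culture at 37 °C.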

human TLR7 = biological target: T2, human TLR7 (Homo sapiens, UniProt Q9NYK1); assay: TLR7 inhibition reporter assay (HEK-Blue cells, SEAP reporter, gardiquimod stimulation); settings: HEK-Blue cells overexpressing human TLR7, SEAP reporter, gardiquimod 7.5 μM
T2 construct: host or cells: HEK-Blue cells
T2 sequence (Q9NYK1 27-1049): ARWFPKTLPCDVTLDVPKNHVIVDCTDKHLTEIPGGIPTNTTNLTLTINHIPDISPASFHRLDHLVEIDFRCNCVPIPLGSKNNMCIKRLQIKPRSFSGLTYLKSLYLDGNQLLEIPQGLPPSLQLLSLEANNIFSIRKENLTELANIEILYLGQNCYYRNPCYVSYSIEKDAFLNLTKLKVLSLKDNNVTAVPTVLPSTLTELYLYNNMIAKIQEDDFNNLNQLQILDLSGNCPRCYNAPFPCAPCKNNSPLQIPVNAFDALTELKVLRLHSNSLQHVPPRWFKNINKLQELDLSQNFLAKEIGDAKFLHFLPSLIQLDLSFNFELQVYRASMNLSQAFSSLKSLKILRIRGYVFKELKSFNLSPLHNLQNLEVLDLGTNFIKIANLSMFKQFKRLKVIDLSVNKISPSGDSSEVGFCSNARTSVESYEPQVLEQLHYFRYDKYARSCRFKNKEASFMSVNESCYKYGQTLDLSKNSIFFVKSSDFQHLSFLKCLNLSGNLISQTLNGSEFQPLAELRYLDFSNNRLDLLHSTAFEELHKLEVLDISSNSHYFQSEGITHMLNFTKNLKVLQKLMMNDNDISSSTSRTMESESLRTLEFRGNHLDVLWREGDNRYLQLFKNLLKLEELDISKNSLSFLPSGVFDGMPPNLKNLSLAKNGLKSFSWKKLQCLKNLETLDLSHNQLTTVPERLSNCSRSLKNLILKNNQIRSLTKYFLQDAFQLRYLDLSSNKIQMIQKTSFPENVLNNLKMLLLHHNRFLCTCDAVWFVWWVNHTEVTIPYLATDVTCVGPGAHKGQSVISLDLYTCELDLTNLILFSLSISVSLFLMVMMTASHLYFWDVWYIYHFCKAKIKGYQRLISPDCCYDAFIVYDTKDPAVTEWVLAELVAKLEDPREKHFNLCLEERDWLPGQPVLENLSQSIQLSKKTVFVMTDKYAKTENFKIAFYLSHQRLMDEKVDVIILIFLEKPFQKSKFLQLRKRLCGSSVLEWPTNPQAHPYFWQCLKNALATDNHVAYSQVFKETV
Outline: as §1

human TLR9 = biological target: T3, human TLR9 (Homo sapiens, UniProt Q9NR96); assay: TLR9 inhibition reporter assay (HEK-Blue cells, SEAP reporter, ODN2006 stimulation); settings: HEK-Blue cells overexpressing human TLR9, SEAP reporter, ODN2006 5 nM
T3 construct: host or cells: HEK-Blue cells
T3 sequence (Q9NR96 26-1032): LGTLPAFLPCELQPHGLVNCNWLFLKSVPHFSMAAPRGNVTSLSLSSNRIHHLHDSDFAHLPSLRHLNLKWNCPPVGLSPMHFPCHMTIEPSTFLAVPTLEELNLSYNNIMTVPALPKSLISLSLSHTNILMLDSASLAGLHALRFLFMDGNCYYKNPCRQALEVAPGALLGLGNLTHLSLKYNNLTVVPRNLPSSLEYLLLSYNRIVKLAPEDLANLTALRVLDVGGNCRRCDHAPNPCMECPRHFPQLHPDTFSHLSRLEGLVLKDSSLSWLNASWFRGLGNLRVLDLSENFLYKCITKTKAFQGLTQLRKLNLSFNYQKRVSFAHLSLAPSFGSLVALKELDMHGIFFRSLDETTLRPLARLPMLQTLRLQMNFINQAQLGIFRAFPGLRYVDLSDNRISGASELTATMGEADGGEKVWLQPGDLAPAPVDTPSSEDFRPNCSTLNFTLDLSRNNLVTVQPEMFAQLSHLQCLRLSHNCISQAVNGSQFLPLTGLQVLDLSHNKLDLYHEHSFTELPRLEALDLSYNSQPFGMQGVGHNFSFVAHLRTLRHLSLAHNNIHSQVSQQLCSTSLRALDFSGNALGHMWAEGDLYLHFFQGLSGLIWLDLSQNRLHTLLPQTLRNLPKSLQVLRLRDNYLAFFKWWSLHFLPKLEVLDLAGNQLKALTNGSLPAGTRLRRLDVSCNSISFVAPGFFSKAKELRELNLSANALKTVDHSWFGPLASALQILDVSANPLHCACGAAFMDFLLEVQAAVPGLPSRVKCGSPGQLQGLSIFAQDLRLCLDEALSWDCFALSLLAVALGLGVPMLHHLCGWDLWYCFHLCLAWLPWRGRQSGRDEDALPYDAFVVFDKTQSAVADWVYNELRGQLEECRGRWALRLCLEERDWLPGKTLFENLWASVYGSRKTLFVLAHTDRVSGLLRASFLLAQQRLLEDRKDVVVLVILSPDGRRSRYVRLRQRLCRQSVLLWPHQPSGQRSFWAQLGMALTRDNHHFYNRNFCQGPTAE
Outline: as §1

Row | Structure (SMILES) | IC50 (human TLR8) | IC50 (human TLR7) | IC50 (human TLR9)
1 | Cc1cc(-c2[nH]c3ccc(CC4CCCN4Cc4ccccc4)cc3c2C(C)C)cn2ncnc12 (single isomer, unassigned) [Example 397, 5-[(1-benzylpyrrolidin-2-yl)methyl]-2-{8-methyl-[1,2,4]triazolo[1,5-a]pyridin-6-yl}-3-(propan-2-yl)-1H-indole] | 5.4 nM | 3 nM | 1.6 µM
2 | Cc1cc(-c2[nH]c3ccc(C4CCCN(CC(=O)N(C)C)C4)cc3c2C(C)C)cc(C)n1 (stereo not drawn) [Example 235] | 12 nM | 40 nM | 0.693 µM
3 | COc1cc(-c2[nH]c3ccc(C4CCC(NC5COC5)CC4)cc3c2C(C)C)cn2ncnc12 (stereo not drawn) [Example 90] | 1.7 nM | 0.48 nM | 1.79 µM
4 | COc1cc(-c2[nH]c3ccc(C4CCC(NCC(F)F)CC4)cc3c2C(C)C)cn2ncnc12 (single isomer, unassigned) [Example 67] | 1.3 nM | 0.17 nM | 5.76 µM
5 | Cc1c(-c2[nH]c3ccc(C4CCC(N(C)C)CC4)cc3c2C(C)C)cn2cnnc2c1C (stereo not drawn) [Example 529] | 39 nM | 12 nM | 9.13 µM
6 | Cc1cc(-c2[nH]c3ccc(C4CN(CC(=O)N(C)C)C4)cc3c2C(C)C)cn2ncnc12 [Example 261] | 11 nM | 4 nM | 3.31 µM
7 | Cc1cc(-c2[nH]c3ccc(C4CCCN(C(=O)C5(C)CC5)C4)cc3c2C(C)C)cc(C)n1 (stereo not drawn) [Example 202] | 35 nM | 4 nM | 12.2 µM
8 | CNC1CCC(c2ccc3[nH]c(-c4cn5ncnc5c(C)c4C)c(C(C)C)c3c2)CC1 (stereo not drawn) [Example 89] | 0.58 nM | 0.23 nM | 1.32 µM
9 | CNCCN1CCCC(c2ccc3[nH]c(-c4ccnc(C)c4)c(C(C)C)c3c2)C1 (stereo not drawn) [Example 255] | 5.2 nM | 19 nM | 0.157 µM
10 | Cc1cc(-c2[nH]c3ccc(C4CCCN(C(=O)C5(C)CC5)C4)cc3c2C(C)C)cc(C)n1 (stereo not drawn) [Example 199] | 427 nM | 89 nM | 36.9 µM
11 | COc1cc(-c2[nH]c3ccc(C4CN(C(=O)CN5CCS(=O)(=O)CC5)CCO4)cc3c2C(C)C)cn2ncnc12 (stereo not drawn) [Example 360] | 68 nM | 11 nM | > 50 µM
12 | COc1ccc(CNC2CCC(c3ccc4[nH]c(-c5cc(C)nc(C)c5)c(C(C)C)c4c3)CC2)cc1 (single isomer, unassigned) [Example 50] | 149 nM | 68 nM | 0.622 µM
13 | Cc1cc(-c2[nH]c3ccc(C4CN5CCC4CC5)cc3c2C(C)C)cc(C)n1 (single isomer, unassigned) [Example 363, 3-(2-(2,6-dimethylpyridin-4-yl)-3-isopropyl-1H-indol-5-yl)quinuclidine] | 5.3 nM | 2 nM | 0.438 µM
14 | CNC(=O)CN1CCCC(c2ccc3[nH]c(-c4cn5ncnc5c(C)c4C)c(C(C)C)c3c2)C1 (stereo not drawn) [Example 232] | 8.1 nM | 9 nM | 16.3 µM
15 | Cc1cc(-c2[nH]c3ccc([C@H]4C[C@H]4C(=O)N4CC5CC4CN5)cc3c2C(C)C)ccn1 (stereo partly drawn) [Example 454] | 5.5 nM | 96 nM | 0.363 µM
16 | Cc1c(-c2[nH]c3ccc(C4CCC(N5CC(CO)(CO)C5)CC4)cc3c2C(C)C)cn2ncnc2c1C (single isomer, unassigned) [Example 27] | 2.8 nM | 2 nM | 1.76 µM
17 | Cc1cc(-c2[nH]c3ccc(C4CN(C)CCO4)cc3c2C(C)C)cn2ncnc12 (stereo not drawn) [Example 293] | 1.1 nM | 2 nM | 10.1 µM
18 | CNC(=O)CN1CCCC(c2ccc3[nH]c(-c4cc(OC)c5ncnn5c4)c(C(C)C)c3c2)C1 (stereo not drawn) [Example 223] | 13 nM | 2 nM | 7.5 µM
19 | Cc1c(-c2[nH]c3ccc(C4CCC(N)CC4)cc3c2C(C)C)cn2cnnc2c1C (stereo not drawn) [Example 516] | 13 nM | 3 nM | 0.707 µM
20 | Cc1c(-c2[nH]c3ccc(C4CNCCO4)cc3c2C(C)C)cn2ncnc2c1C (stereo not drawn) [Example 287] | 0.62 nM | 0.7 nM | 2.55 µM
21 | CNC(=O)CN1CCCC(c2ccc3[nH]c(-c4cn5ncnc5c(C)c4C)c(C(C)C)c3c2)C1 (stereo not drawn) [Example 231] | 4.6 nM | 9 nM | 17.3 µM
22 | COc1cc(-c2[nH]c3ccc(C4CCC(N5CCCC(F)(F)C5)CC4)cc3c2C(C)C)cn2ncnc12 (stereo not drawn) [Example 34] | 23 nM | 5 nM | 20.5 µM
23 | CCN(C)CC(=O)NC1CCC(c2ccc3[nH]c(-c4cc(OC)c5ncnn5c4)c(C(C)C)c3c2)CC1 (stereo not drawn) [Example 132, 2-(ethyl(methyl)amino)-N-(4-(3-isopropyl-2-(8-methoxy-[1,2,4]triazole [1,5-a]pyridin-6-yl)-1H-indol-5-yl)cyclohexyl)acetamide] | 1.5 nM | 0.44 nM | 6.04 µM
24 | Cc1c(-c2[nH]c3ccc(C4CCC(NCC(=O)N(C)C)CC4)cc3c2C(C)C)cn(C)c(=O)c1C (stereo not drawn) [Example 473] | 15 nM | 34 nM | 8.97 µM

— patent publication US11878975B2, “Substituted indole compounds useful as TLR inhibitors” (BRISTOL-MYERS SQUIBB COMPANY, priority 2017, dated 2024)
